From patent US7223759B2, “Antibacterial 3,5-diaminopiperidine-substituted aromatic and heteroaromatic compounds” (Anadys Pharmaceuticals, Inc., priority 2003, dated 2007) come the findings set out here.

In the first test the test system is Escherichia coli (ATCC25922) or Staphylococcus aureus (ATCC25923). Put plainly: Antibacterial MIC, microdilution method in Mueller-Hinton medium. It is filed as cell-based. The following applies: Escherichia coli, 18 h, MIC in E. coli or S. aureus; two-fold serial dilutions 64 to 0.5 μg/ml in duplicate; 18 hours of incubation at 35° C.; read-out: Potency (MIC). An outline of the steps:
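Read after 18 h incubation at 35° C, MIC is the lowest compound level that blocked growth. Compounds were tested in duplicate over 64–0.5 μg/ml two-fold dilutions using Mueller-Hinton microdilution per NCCLS standard.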
As to `Cl.Nc1nc(N2C[C@H](N)C[C@H](N)C2)nc(N2C[C@H](N)C[C@H](N)C2)n1` [4,6-Bis-((3R,5S)-3,5-diamino-piperidin-1-yl)-[1,3,5]triazin-2-ylamine], the MIC is above 64 mg/L.
Take `Cl.O=C(Nc1ccc(Nc2nc(N3CCCCC3)nc(N3CCCC3)n2)cc1O)c1ccc(Cl)cc1` [4-Chloro-N-{4-[4-((3R,5S)-3,5-diamino-piperidin-1-yl)-6-((3R,4S)-3,4-diamino-pyrrolidsin-1-yl)-[1,3,5]triazin-2-ylamino]-2-hydroxy-phenyl}-benzamide]: the MIC is below 64 mg/L.
Consider `N[C@@H]1C[C@H](N)CN(c2nc(NCCN3CCNC3=O)nc(Nc3ccc(NC(=O)c4ccc(Cl)cc4)c(O)c3)n2)C1` [4-Chloro-N-{4-[4-((3S,5R)-3,5-diamino-piperidin-1-yl)-6-[2-(2-oxo-imidazolidin-1-yl)-ethylamino]-[1,3,5]triazin-2-ylamino}-2-hydroxy-phenyl)-benzamide], for which the MIC is below 64 mg/L.
Regarding `CCOC(=O)c1ccc(Nc2nc(N3C[C@H](N)C[C@H](N)C3)nc(N3C[C@H](N)C[C@H](N)C3)n2)cc1` [4-[4,6-Bis-((3R,5S)-3,5-diamino-piperidin-1-yl)-[1,3,5]triazin-2-ylamino]-benzoic acid ethyl ester], the minimum inhibitory concentration (MIC) was above 64 mg/L.
For the compound `Cc1cc(Br)ccc1Nc1nc(N2CCCCC2)nc(N2CCCCC2)n1.Cl` [4-[4,6-Bis-((3R,5S)-3,5-diamino-piperidin-1-yl)-[1,3,5]triazin-2-ylammino]-benzoic acid methyl ester], the MIC was above 64 mg/L.
Turning to `Cl.N[C@@H]1C[C@H](N)CN(c2nc(N3C[C@H](N)C[C@H](N)C3)nc(N3CCc4cc(Br)ccc43)n2)C1` [4-[4-(4,6-Bis-((3R,5S)-3,5-diamino-piperidin-1-yl)-[1,3,5]triazin-2-yl)-piperiazin-1-yl]-phenol], the MIC is below 64 mg/L.
For the compound `CC(=O)N1CCN(c2nc(Nc3ccc(S(=O)(=O)Nc4ccc5cn[nH]c5c4)cc3)nc(N3C[C@H](N)C[C@H](N)C3)n2)CC1` [4-[4-(4-Acetyl-piperazin-1-yl)-6-((3R,5S)-3,5-diamino-piperidin-1-yl)-[1,3,5]triazin-2-ylamino]-N-(1H-indazol-6-yl)-benzenesulfonamide], the MIC is above 64 mg/L.

The test is the same for the next values; noted with them: Escherichia coli, 18 h, read-out: Potency (MIC).
`N[C@@H]1C[C@H](N)CN(c2nc(Nc3ccc(C(=O)CC(=O)Nc4ccc(F)c(F)c4)cc3)nc(N3C[C@@H](N)C[C@H]3CO)n2)C1` [3-{4-[4-((2S,4S)-4-Amino-2-hydroxymethyl-pyrrolidin-1-yl)-6-((3R,5S)-3,5-diamino-piperidin-1-yl)-[1,3,5]triazin-2-ylamino]-phenyl}-N-(3,4-difluoro-phenyl)-3-oxo-propionamide]: the MIC is below 64 mg/L.
Turning to `NC[C@@H]1C[C@H](CN)CN(c2nc(Nc3ccc(C(=O)CC(=O)Nc4ccccc4Cl)cc3)nc(N3C[C@H](N)C[C@H](N)C3)n2)C1` [3-{4-[4-((3R,5S)-3,5-Bis-(aminomethyl)-piperidin-1-yl)-6-((3R,5S)-3,5-diamino-piperidin-1-yl)-[1,3,5]triazin-2-ylamino]-phenyl}-N-(2-chloro-phenyl)-3-oxo-propionamide], the MIC is below 64 mg/L.
For `COc1nc(Nc2ccc(C(=O)CC(=O)Nc3ccc4c(c3)OC(F)(F)O4)cc2)nc(N2C[C@H](N)C[C@H](N)C2)n1` [3-{4-[4-((3R,5S)-3,5-Diamino-piperidin-1-yl)-6-methoxy-[1,3,5]triazin-2-ylamino]-phenyl}-N-(2,2-difluoro-benzo[1,3]dioxol-5-yl)-3-oxo-propionamide], the MIC was below 16 mg/L.
`COc1nc(Nc2ccc(C(=O)CC(=O)Nc3ccc(F)c(F)c3)cc2)nc(N2C[C@H](N)C[C@H](N)C2)n1` [3-{4-[4-((3R,5S)-3,5-Diamino-piperidin-1-yl)-6-methoxy-[1,3,5]triazin-2-ylamino]-phenyl}-N-(3,4-difluoro-phenyl)-3-oxo-propionamide]: the minimal inhibitory concentration (MIC) was below 16 mg/L.
On the same count and under the same terms, under `N[C@@H]1C[C@H](N)CN(c2nc(Nc3ccc(NC(=O)c4ccc(Cl)cc4)c(O)c3)nc(N3CCN(CC(=O)N4CCOCC4)CC3)n2)C1` [4-Chloro-N-(4-{4-((3S,5R)-3,5-diamino-piperidin-1-yl)-6-[4-(2-morpholin-4-yl-2-oxo-ethyl)-piperazin-1-yl]-[1,3,5]triazin-2-ylamino}-2-hydroxy-phenyl)-benzamide] stands above 64 mg/L; under `COc1nc(Nc2ccc(NC(=O)c3ccc(Cl)cc3)c(O)c2)nc(N2C[C@H](N)C[C@H](N)C2)n1` [4-Chloro-N-{4-[4-((3R,5S)-3,5-diamino-piperidin-1-yl)-6-methoxy-[1,3,5]triazin-2-ylamino]-2-hydroxy-phenyl}-benzamide], below 16 mg/L; under `N[C@@H]1C[C@H](N)CN(c2nc(Nc3ccc(NC(=O)c4ccc(Cl)cc4)c(O)c3)nc(N3CCN(c4ccncc4)CC3)n2)C1` [4-Chloro-N-{4-[4-((3S,5R)-3,5-diamino-piperidin-1-yl)-6-(4-pyridin-4-yl-piperazin-1-yl)-[1,3,5]triazin-2-ylamino]-2-hydroxy-phenyl}-benzamide], below 64 mg/L.
As for `N[C@@H]1C[C@H](N)CN(c2nc(Nc3ccc(NC(=O)c4ccc(Cl)cc4)c(O)c3)nc(N3CCC(N4CCCC4)CC3)n2)C1` [4-Chloro-N-{4-[4-((3S,5R)-3,5-diamino-piperidin-1-yl)-6-(4-pyrrolidin-1-yl-piperidin-1-yl)-[1,3,5]triazin-2-ylamino]-2-hydroxy-phenyl}-benzamide], the MIC was below 64 mg/L.
Still for that read-out and setting: under `N[C@@H]1C[C@H](N)CN(c2nc(Nc3ccc(NC(=O)c4ccc(Cl)cc4)c(O)c3)nc(N3C[C@H](O)C[C@@H](O)C3)n2)C1` [4-Chloro-N-{4-[4-((3S,5R)-3,5-diamino-piperidin-1-yl)-6-((3R,5R)-3,5-dihydroxy-piperidin-1-yl)-[1,3,5]triazin-2-ylamino]-2-hydroxy-phenyl}-benzamide] stands below 64 mg/L; under `N[C@@H]1C[C@H](N)CN(c2nc(Nc3ccc(NC(=O)c4ccc(Cl)cc4)c(O)c3)nc(NC3CCCNC3)n2)C1` (stereo partly drawn) [4-Chloro-N-{4-[4-((3S,5R)-3,5-diamino-piperidin-1-yl)-6-(piperidin-3-ylamino)-[1,3,5]triazin-2-ylamino]-2-hydroxy-phenyl}-benzamide], below 16 mg/L.
With `N[C@@H]1C[C@H](N)CN(c2nc(Nc3ccc(NC(=O)c4ccc(Cl)cc4)c(O)c3)nc(N3CCNCC3)n2)C1` [4-Chloro-N-{4-[4-((3S,5R)-3,5-diamino-piperidin-1-yl)-6-piperazin-1-yl-[1,3,5]triazin-2-ylamino]-2-hydroxy-phenyl}-benzamide], the MIC is below 16 mg/L.
On to `NC[C@@H]1C[C@H](N)CN1c1nc(Nc2ccc(C(=O)Oc3ccccc3)c(O)c2)nc(N2C[C@H](N)C[C@H](N)C2)n1` [4-[4-((2S,4S)-4-Amino-2-aminomethyl-pyrrolidin-1-yl)-6-((3R,5S)-3,5-diamino-piperidin-1-yl)-[1,3,5]triazin-2-ylamino]-2-hydroxy-benzoic acid phenyl ester], for which the MIC is below 16 mg/L.
The same measure, in the same setting: to `NC[C@@H]1C[C@H](N)CN1c1nc(Nc2ccc(S(=O)(=O)Nc3ccc4cn[nH]c4c3)cc2)nc(N2C[C@H](N)C[C@H](N)C2)n1` [4-[4-((2S,4S)-4-Amino-2-aminomethyl-pyrrolidin-1-yl)-6-((3R,5S)-3,5-diamino-piperidin-1-yl)-[1,3,5]triazin-2-ylamino]-N-(1H-indazol-6-yl)-benzenesulfonamide] belongs above 64 mg/L; to `NC(=O)c1ccc(Nc2nc(N3C[C@H](N)C[C@H](N)C3)nc(N3C[C@@H](N)C[C@H]3CO)n2)cc1O` [4-[4-((2S,4S)-4-Amino-2-hydroxymethyl-pyrrolidin-1-yl)-6-((3R,5S)-3,5-diamino-piperidin-1-yl)-[1,3,5]triazin-2-ylamino]-2-hydroxy-benzamide], above 64 mg/L.
In the case of `N[C@@H]1C[C@H](N)CN(c2nc(Nc3ccc(S(=O)(=O)Nc4ccc5cn[nH]c5c4)cc3)nc(N3C[C@@H](N)C[C@H]3CO)n2)C1` [4-[4-((2S,4S)-4-Amino-2-hydroxymethyl-pyrrolidin-1-yl)-6-((3R,5S)-3,5-diamino-piperidin-1-yl)-[1,3,5]triazin-2-ylamino]-N-(1H-indazol-6-yl)-benzenesulfonamide], the MIC was above 64 mg/L.

Staying with this test, now noted: MIC in E. coli or S. aureus; two-fold serial dilutions 64 to 0.5 μg/ml in duplicate; 18 hours of incubation at 35° C.
Consider `NC[C@H]1[C@@H](O)CCN1c1nc(Nc2ccc(C(=O)Oc3ccccc3)c(O)c2)nc(N2C[C@H](N)C[C@H](N)C2)n1` [4-[4-((2S,3S)-2-Aminomethyl-3-hydroxy-pyrrolidin-1-yl)-6-((3R,5S)-3,5-diamino-piperidin-1-yl)-[1,3,5]triazin-2-ylamino]-2-hydroxy-benzoic acidphenylester], for which the “Potency (MIC)” value is recorded as “− (− means MIC>64 μg/ml in E. coli or S. aureus)”.
Consider `NC[C@@H]1C[C@@H](O)CN1c1nc(Nc2ccc(S(=O)(=O)Nc3ccc4cn[nH]c4c3)cc2)nc(N2C[C@H](N)C[C@H](N)C2)n1` [4-[4-((2S,4R)-2-Aminomethyl-4-hydroxy-pyrrolidin-1-yl)-6-((3R,5S)-3,5-diamino-piperidin-1-yl)-[1,3,56]triazin-2-ylamino]-N-(1H-indazol-6-yl)-benzenesulfonamide], for which the “Potency (MIC)” value was “− (− means MIC>64 μg/ml in E. coli or S. aureus)”.
On the same count and under the same terms, under `NC[C@@H]1CN(c2nc(Nc3ccc(C(=O)Oc4ccccc4)c(O)c3)nc(N3C[C@H](N)C[C@H](N)C3)n2)CC[C@@H]1O` [4-[4-((3R,4S)-3-Aminomethyl-4-hydroxy-piperidin-1-yl)-6-((3R,5S)-3,5-diamino-piperidin-1-yl)-[1,3,5]triazin-2-ylamino]-2-hydroxy-benzoic acidphenylester] stands “− (− means MIC>64 μg/ml in E. coli or S. aureus)”.

The term MIC denotes the least concentration at which growth counts as inhibited.
